Experimental data taken from patent US6998383B2, “Inhibitors of receptor activator of NF-κB and uses thereof” (Research Development Corporation, priority 2001, dated 2006).

Assays:
JNK = assay: RANKL-mediated JNK activation in RAW264.7 cells (immune complex kinase assay, GST-Jun (1-79) substrate); type: cell-based, mouse; settings: peptide 6 h, RANKL 10 nM 15 min (FIG. 5A)
Protocol: RAW264.7 cells were plated in 6-well plates and treated with the indicated peptides for 6 h, then treated with RANKL (10 nM) for 15 mm. Whole cell extracts were prepared and 30 μg of cell lysate was immunoprecipitated with anti-JNK1. In vitro kinase assays were performed using GST-Jun (1-79) as the substrate as described below.
Lysates were prepared from RAW cells stimulated with RANKL as indicated in the legends to the figures. Approximately 30 μg was then used for immunoprecipitation with indicated antibodies and protein A/G Sepharose beads for 1 h. Beads were collected by centrifugation, washed three times in lysis buffer, and then washed two times in low-salt buffer. JNK activity was analyzed using exogenous GST-Jun (1-79) as a substrate as previously described (8). Kinase activity was quantitated using a PhosphoImager and Imagequant Software (Molecular Dynamics, Sunnyvale, Calif.).
Stimulation of the receptor activator of NF-κB activates members of the MAPK family including JNK, ERK and p38 kinase. The ability of the TRAF6 binding peptides to inhibit the receptor activator of NF-κB ligand-induced JNK, ERK, and p38 kinase activation was examined in RAW264.7 cells. […] Similar to the results with JNK, only L-T6DP-1 was able to block ERK (FIG. 5B) and p38 kinase (FIG. 5C) activation induced by the receptor activator of NF-κB ligand in RAW264.7 cells.

[1] = target: T1, TRAF6 binding to the RANK cytoplasmic domain (Mus musculus, UniProt P70196); assay: Competitive GST-pull down assay, TRAF6 binding to RANK cytoplasmic domain; settings: 100 μM peptide, FLAG-TRAF6 293 cell extract, GST-RANK cytoplasmic domain (FIG. 4C)
T1 construct: expressed in transfected cells; host or cells: human 293 cells (TRAF lysate); The GST-RANK fusion was purified as previously described
T1 sequence (P70196 1-530): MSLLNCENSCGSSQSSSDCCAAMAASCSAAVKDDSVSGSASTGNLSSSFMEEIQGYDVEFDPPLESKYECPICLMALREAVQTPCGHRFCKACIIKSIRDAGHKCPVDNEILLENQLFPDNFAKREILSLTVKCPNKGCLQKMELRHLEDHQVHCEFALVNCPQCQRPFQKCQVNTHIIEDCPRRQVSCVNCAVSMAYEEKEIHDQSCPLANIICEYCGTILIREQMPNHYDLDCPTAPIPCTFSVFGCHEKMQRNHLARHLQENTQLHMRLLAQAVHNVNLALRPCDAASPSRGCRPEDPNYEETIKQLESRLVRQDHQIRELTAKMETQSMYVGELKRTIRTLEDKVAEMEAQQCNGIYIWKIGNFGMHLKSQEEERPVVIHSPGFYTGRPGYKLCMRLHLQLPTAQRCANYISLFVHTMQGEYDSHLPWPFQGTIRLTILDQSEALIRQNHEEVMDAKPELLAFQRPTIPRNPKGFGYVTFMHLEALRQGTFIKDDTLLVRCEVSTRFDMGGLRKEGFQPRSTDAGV
Protocol: Cellular extracts from human 293 cells transfected with either FLAG-TRAF2, -TRAF5, or -TRAF6 were mixed with GST or GST-RANKed in the absence or presence of 100 μM of the indicated peptides. A GST-pull down assay was performed as described below. The bound TRAFs were visualized by immunoblotting with anti-FLAG antibodies.
Equivalent amounts of GST or GST-RANK cytoplasmic domain (GST-RANKed) fusion protein attached to 20 μl of glutathione agarose beads were mixed with lysates (50 μg) from 293 cells programmed to express the epitope-tagged TRAF protein and the indicated peptides in binding buffer (20 mM TRIS, pH 8, 150 mM NaCl, 1 mM DTT, 2 mM EDTA, and 0.1% NP-40) and allowed to rotate for 1 h at 4° C. The beads were collected by centrifugation, washed three times in binding buffer, and then washed once in low-salt buffer (20 mM TRIS, pH 8, 50 mM NaCl, and 1 mM DTT). Bound proteins were eluted with addition of SDS-sample buffer and boiled. The eluted proteins were subjected to 7.5% SDS-PAGE and western blot analysis was performed with anti-FLAG antibodies.
The cytoplasmic domain of RANK interacts with many TRAF molecules, including TRAF1, 2, 3, 5, and 6 (7-9, 11, 12). While TRAF1, 2, 3, and 5 interact with the c-terminal tail of receptor activator of NF-κB, TRAF6 interacts with a membrane proximal region of the cytoplasmic domain of the receptor activator of NF-κB. […]

## L-T6DP-1: Kaposi fibroblast growth factor signal sequence hydrophobic domain attached to murine RANK peptide containing the known TRAF6 binding domain (AAVALLPAVLLALLAPRKIPTEDEYTDRPSQPST; PEPTIDE Peptide L-T6Bp-1)
JNK
  RANKL-mediated JNK activation: capable of inhibiting
[1]
  TRAF6 interaction with the cytoplasmic domain of RANK: inhibited
